Source: patent publication US20240025880A1 (CHIESI FARMACEUTICI S.P.A., priority 2020, published 2024)
Read-outs that look alike come from different tables or passages of the source.

Experiments:
h P2X3 = target: T1, h P2X3 (Homo sapiens, UniProt P56373); assay: In vitro electrophysiology assay for P2X3 (automated whole-cell patch clamp, α,β-MeATP agonist); assay type: cell-based; settings: 800 nM α,β-MeATP, peak current, read-out: h P2X3 (pIC50 range of activity) (converted)
T1 sequence (P56373 1-397): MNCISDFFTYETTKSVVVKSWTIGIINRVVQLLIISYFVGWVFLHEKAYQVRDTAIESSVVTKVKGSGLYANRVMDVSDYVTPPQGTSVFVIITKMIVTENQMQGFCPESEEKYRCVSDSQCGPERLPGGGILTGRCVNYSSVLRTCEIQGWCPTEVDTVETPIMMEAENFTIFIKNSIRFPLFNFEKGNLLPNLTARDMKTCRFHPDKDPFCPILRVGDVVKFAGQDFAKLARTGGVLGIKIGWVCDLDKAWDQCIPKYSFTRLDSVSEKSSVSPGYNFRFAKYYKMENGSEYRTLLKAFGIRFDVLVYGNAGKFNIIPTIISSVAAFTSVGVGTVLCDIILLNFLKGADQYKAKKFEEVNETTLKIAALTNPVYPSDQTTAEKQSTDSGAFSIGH
How it was run: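 Automated whole-cell patch clamp of P2X3-expressing cells at −60 mV, room temperature, pH 7.4 bath with CsF internal solution. Antagonist preincubated 10 min, then co-applied with 800 nM α,β-MeATP; peak current inhibition versus second agonist response, ten concentrations, IC50 from four-parameter fit.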

h P2X2/3 = target: T2, h P2X2/3 (Homo sapiens, UniProt P56373+Q9UBL9); assay: In vitro electrophysiology assay for P2X2/3 (same protocol, 10 μM ATP agonist); assay type: cell-based; settings: Table 3, mean current seven seconds after agonist, read-out: h P2X2/3 (pIC50 range of activity) (converted)
T2 construct: host or cells: cells not described; same protocol as the P2X3 assay
T2 sequence (P56373 1-397): T1 sequence (P56373 1-397)
T2 sequence (Q9UBL9 1-471): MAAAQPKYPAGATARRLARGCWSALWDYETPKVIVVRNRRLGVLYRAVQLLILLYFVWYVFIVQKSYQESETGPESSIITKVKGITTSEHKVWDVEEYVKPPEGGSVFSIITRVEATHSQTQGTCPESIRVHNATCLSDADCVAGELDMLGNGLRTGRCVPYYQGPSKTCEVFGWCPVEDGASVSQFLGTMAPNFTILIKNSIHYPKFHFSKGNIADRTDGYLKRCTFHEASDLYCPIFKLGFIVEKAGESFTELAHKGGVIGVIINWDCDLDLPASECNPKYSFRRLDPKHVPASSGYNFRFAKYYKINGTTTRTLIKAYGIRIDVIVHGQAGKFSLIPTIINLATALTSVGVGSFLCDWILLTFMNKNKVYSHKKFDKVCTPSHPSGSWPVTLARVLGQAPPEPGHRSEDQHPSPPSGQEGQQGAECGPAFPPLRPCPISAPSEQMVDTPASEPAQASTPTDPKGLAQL
Method: Cells expressing P2X3 receptors were grown according to standard practice and maintained at 37° C. in a 5% humidified CO2 atmosphere. The cells were seeded into T175 flask 2 days prior to the day of the assay and dissociated from the flasks using TrypLE when grown to confluence of 80-90%. The dissociated cells were resuspended in serum free media at a cell density of 3×10^6 cells/ml and loaded onto the Sophion Qube automated patch-clamp system. The extracellular assay buffer contained 145 mM NaCl, 4 mM KCl, 2 mM CaCl2, 1 mM MgCl2, 10 mM HEPES, and 10 mM glucose at pH 7.4. The intracellular assay solution contained 140 mM CsF, 10 mM NaCl, 10 mM EGTA, 10 mM HEPES at pH 7.2. Agonist stock solutions were prepared in H2O and diluted in bath solution prior to use. All antagonists were prepared as 10 mM stock solutions in DMSO and diluted in bath solution prior to use. All experiments were performed under the whole-cell patch clamp configuration at room temperature with 384 individual cells being voltage clamped at −60 mV simultaneously on the Sophion Qube instrument. Two baseline responses were established with the application of α,β-MeATP (800 nM), with the subsequent agonist applications being washed out using extracellular assay buffer containing 0.5 U/ml apyrase. Following the second agonist application, antagonist was incubated in the absence of α,β-MeATP for 10 minutes. After antagonist preincubation, 800 nM α,β-MeATP and antagonist were co-administered to determine the inhibitory effect of the antagonist. One concentration of an antagonist was assessed against a single cell, with different concentrations of the antagonist applied to other cells on the 384 recording substrate. The control P2X3 current amplitude was taken from the peak current amplitude from the second agonist response prior to preincubation with antagonist. The peak P2X3 current amplitude in the presence of antagonist was used to calculate the inhibitory effect at each concentration of the antagonist according to the following equation: […]
In vitro Electrophysiology Assay for P2X2/3
Representative compound of the present invention have been also tested for P2X2/3 receptor.
The same assay protocol was used for the P2X2/3 assay as the P2X3 assay with two modifications: 1) 10 μM ATP was used as the agonist; and 2) the mean current amplitude was measured seven seconds after the application of agonist.

| IC50 (h P2X3; Table 2) | IC50 (h P2X3; Table 3) | IC50 (h P2X2/3) | Compound |
| --- | --- | --- | --- |
| < 316 nM | < 316 nM | 316 to 3160 nM | Cc1ccc(CNc2ncnc3c(OCc4nnc(C5CC5)o4)cc(-c4ccc(F)cc4)cc23)nn1 [Example 62, 8-((5-cyclopropyl-1,3,4-oxadiazol-2-yl)methoxy)-6-(4-fluorophenyl)-N-((6-methylpyridazin-3-yl)methyl)quinazolin-4-amine] |
| < 316 nM | < 316 nM | 316 to 3160 nM | Cc1nc([C@@H](C)Nc2ncnc3c(S(=O)(=O)N4CCC(F)(F)C4)cc(-c4ccc(F)cc4)cc23)no1 [Example 17, (R)-8-((3,3-difluoropyrrolidin-1-yl)sulfonyl)-6-(4-fluorophenyl)-N-(1-(5-methyl-1,2,4-oxadiazol-3-yl)ethyl)quinazolin-4-amine] |
